US7923464B2, “Benzimidazole derivatives and their use for modulating the GABAA receptor complex” (Neurosearch A/S, priority 2005, dated 2011)

The compounds below were run against benzodiazepine modulatory unit (GABAA receptor complex), labelled with 3H-flunitrazepam (assay: In vitro inhibition of 3H-flunitrazepam (3H-FNM) binding). Settings: cerebral cortex membranes from male Wistar rats; 3H-FNM 1 nM; 40 min at 2° C.
Design: species or system rat
Protocol: In Vitro Inhibition of ^3H-flunitrazepam (^3H-FNM) Binding
The GABA recognition site and the benzodiazepine modulatory unit can selectively be labelled with ^3H-flunitrazepam.
Preparations are performed at 0-4° C. unless otherwise indicated. Cerebral cortex from male Wistar rats (150-200 g) is homogenised for 5-10 sec in 20 ml Tris-HCl (30 mM, pH 7.4) using an Ultra-Turrax homogeniser. The suspension is centrifuged at 27,000×g for 15 min and the pellet is washed three times with buffer (centrifuged at 27,000×g for 10 min). The washed pellet is homogenized in 20 ml of buffer and incubated on a water bath (37° C.) for 30 min to remove endogenous GABA and then centrifuged for 10 min at 27,000×g. The pellet is then homogenized in buffer and centrifuged for 10 min at 27,000×g. The final pellet is resuspended in 30 ml buffer and the preparation is frozen and stored at −20° C.
The membrane preparation is thawed and centrifuged at 2° C. for 10 min at 27,000×g. The pellet is washed twice with 20 ml 50 mM Tris-citrate, pH 7.1 using an Ultra-Turrax homogeniser and centrifuged for 10 min at 27,000×g. The final pellet is resuspended in 50 mM Tris-citrate, pH 7.1 (500 ml buffer per g of original tissue), and then used for binding assays. Aliquots of 0.5 ml tissue are added to 25 μl of test solution and 25 μl of ^3H-FNM (1 nM, final concentration), mixed and incubated for 40 min at 2° C. Non-specific binding is determined using Clonazepam (1 μM, final concentration). After incubation the samples are added 5 ml of ice-cold buffer and poured directly onto Whatman GF/C glass fibre filters under suction and immediately washed with 5 ml ice-cold buffer. The amount of radioactivity on the filters is determined by conventional liquid scintillation counting. Specific binding is total binding minus non-specific binding.
Co is specific binding in control assays, and
Cx is the specific binding in the test assay.
(The calculations assume normal mass-action kinetics).
Compound `C[C@@H](N)c1ccc2c(c1)ncn2-c1cccc(-c2ccccc2C#N)c1` [Compound 12r, 3′-[5-((R)-1-Amino-ethyl)-benzoimidazol-1-yl]-biphenyl-2-carbonitrile] has an IC50 of 3.7 nM. For `COc1ccccc1-c1cccc(-n2cnc3cc([C@H](C)NC(C)=O)ccc32)c1` [Compound 12g, N-{(S)-1-[1-(2′-Methoxy-biphenyl-3-yl)-1H-benzoimidazol-5-yl]-ethyl}-acetamide], the IC50 was 2.6 nM. Work on `COc1ccccc1-c1cccc(-n2cnc3cc([C@@H](C)N)ccc32)c1` [Compound 12o, (R)-1-[1-(2′-Methoxy-biphenyl-3-yl)-1H-benzoimidazol-5-yl]-ethylamine] yielded an IC50 of 6.7 nM. Compound `COc1ccccc1-c1cccc(-n2cnc3cc([C@@H](C)NC(C)=O)ccc32)c1` [Compound 12b, N-{(R)-1-[1-(2′-Methoxy-biphenyl-3-yl)-1H-benzoimidazol-5-yl]-ethyl}-acetamide] has an IC50 of 60 nM. Work on `CC(N)c1ccc2c(c1)ncn2-c1cccc(-c2ccccc2)c1` (centres unmarked) [Compound 3a, 1-(1-Biphenyl-3-yl-1H-benzoimidazol-5-yl)-ethylamine] yielded an IC50 of 73 nM.
